Assay results: the NIST ThermoML archive (doi:10.1016/j.jct.2013.07.010)
Numbers after ± are expanded uncertainties.

Experiments:
[1] = 101 kPa, Liquid; for viscosity: Capillary tube (Ostwald / Ubbelohde) method; for mass density: Vibrating tube method
[2] = cn = amount concentration of the nth substance listed, in mol/dm3; details: 101 kPa, Liquid; for viscosity: Capillary tube (Ostwald / Ubbelohde) method; for mass density: Vibrating tube method

CO [methanol]
viscosity ([1]; 298.15 K): 0.5451 ± 0.011 mPa·s | mass density ([1]; 298.15 K): 786.62 ± 1 kg/m3 | viscosity ([1]; 308.15 K): 0.476 ± 0.01 mPa·s | mass density ([1]; 308.15 K): 777.18 ± 1 kg/m3 | viscosity ([1]; 318.15 K): 0.4183 ± 0.0089 mPa·s | mass density ([1]; 318.15 K): 767.74 ± 1 kg/m3

CO [methanol] + CCCC[N+](CCCC)(CCCC)CCCC.[Br-]
viscosity ([2]; 298.15 K, c2 = 0): 0.5451 ± 0.011 mPa·s | mass density ([2]; 298.15 K, c2 = 0): 786.62 ± 1 kg/m3 | viscosity ([2]; 308.15 K, c2 = 0): 0.476 ± 0.01 mPa·s | mass density ([2]; 308.15 K, c2 = 0): 777.18 ± 1 kg/m3 | viscosity ([2]; 318.15 K, c2 = 0): 0.4183 ± 0.0089 mPa·s | mass density ([2]; 318.15 K, c2 = 0): 767.74 ± 1 kg/m3

CCCC[N+](CCCC)(CCCC)CCCC.[Br-] [tetrabutylammonium bromide] + CO
viscosity ([2]; 298.15 K, c1 = 0.02): 0.5542 ± 0.012 mPa·s | viscosity ([2]; 298.15 K, c1 = 0.04): 0.581 ± 0.012 mPa·s | viscosity ([2]; 298.15 K, c1 = 0.05): 0.5973 ± 0.013 mPa·s | mass density ([2]; 298.15 K, c1 = 0.02): 790.69 ± 1 kg/m3 | mass density ([2]; 298.15 K, c1 = 0.04): 792.74 ± 1 kg/m3 | mass density ([2]; 298.15 K, c1 = 0.05): 794.89 ± 1 kg/m3 | viscosity ([2]; 308.15 K, c1 = 0.02): 0.4951 ± 0.01 mPa·s | viscosity ([2]; 308.15 K, c1 = 0.04): 0.5135 ± 0.011 mPa·s | viscosity ([2]; 308.15 K, c1 = 0.05): 0.5274 ± 0.011 mPa·s | mass density ([2]; 308.15 K, c1 = 0.02): 780.94 ± 1 kg/m3 | mass density ([2]; 308.15 K, c1 = 0.04): 783.43 ± 1 kg/m3 | mass density ([2]; 308.15 K, c1 = 0.05): 785.33 ± 1 kg/m3 | viscosity ([2]; 318.15 K, c1 = 0.02): 0.439 ± 0.0093 mPa·s | viscosity ([2]; 318.15 K, c1 = 0.04): 0.4469 ± 0.0095 mPa·s | viscosity ([2]; 318.15 K, c1 = 0.05): 0.4584 ± 0.0097 mPa·s | mass density ([2]; 318.15 K, c1 = 0.02): 771.06 ± 1 kg/m3 | mass density ([2]; 318.15 K, c1 = 0.04): 773.92 ± 1 kg/m3 | mass density ([2]; 318.15 K, c1 = 0.05): 775.68 ± 1 kg/m3
